These are literature values, as cited in patent publication EP0398143B1, “Labeled chemotactic peptides to image focal sites of infection or inflammation” (THE GENERAL HOSPITAL CORPORATION, priority 1989, dated 1990).

Non-standard residues stand in square brackets, D forms with d. Residues, ends and D or L forms follow the SMILES beside them. *: point of attachment. Nle = CCCC[C@H](N)C(=O)O; For = O=C*

For this series, the target named is T1, receptors on human neutrophils (Homo sapiens, UniProt P21462).
T1 construct: host or cells: human neutrophils (endogenous receptor)
T1 sequence (P21462 1-350): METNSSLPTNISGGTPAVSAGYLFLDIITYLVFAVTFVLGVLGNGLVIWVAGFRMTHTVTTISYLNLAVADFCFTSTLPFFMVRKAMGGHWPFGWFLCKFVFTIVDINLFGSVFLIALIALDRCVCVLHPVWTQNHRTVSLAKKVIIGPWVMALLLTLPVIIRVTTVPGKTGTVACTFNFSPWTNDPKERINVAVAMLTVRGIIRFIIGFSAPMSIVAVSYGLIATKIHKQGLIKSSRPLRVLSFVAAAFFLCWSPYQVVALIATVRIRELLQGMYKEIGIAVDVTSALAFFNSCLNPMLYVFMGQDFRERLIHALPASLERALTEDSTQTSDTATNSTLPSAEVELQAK
The settings on record: peptide labeled with ¹²⁵I at the Tyr residue.

On to `CCCC[C@H](NC=O)C(=O)N[C@@H](CC(C)C)C(=O)N[C@@H](Cc1ccccc1)C(=O)N[C@@H](CCCC)C(=O)N[C@@H](Cc1ccc(O)cc1)C(=O)N[C@@H](CCCCN)C(=O)O` [N-formyl-Nle-Leu-Phe-Nle-Tyr-Lys] (For-[Nle]LF[Nle]YK-OH), for which the “binding to receptors on human neutrophils” value is recorded as “bind strongly”.
